Key:
IL-1β = IL-1β secretion from LPS-stimulated microglial cells (ELISA); format: cell-based, rat; conditions: LPS 100 ng/mL, 24 h
Method: Cultures of primary rat microglial cells were prepared from cerebral cortices of 1-2 day-old neonatal Wistar rats as described. Microglial cells were seeded at 24-well plastic plates at 1×10^5/well in RPMI-1640 containing 2% FBS, 2 mM glutamine, 100 U/mL penicillin, 100 µg/mL streptomycin, 1 mM sodium pyruvate, and 50 μM β-mercaptoethanol. Cells were cultured for 36 h before treatments. The research was conducted in accordance with the NIH guide for the care and use of laboratory animals, and was approved by the Institutional Animal Care and Use Committee of The Volcani Center, Agricultural Research Organization (IL-135/07, approval date Apr. 11, 2007). All efforts were made to minimize animal suffering, and to reduce the number of animals used.
For IL-1β measurements, 3.5×10^4 cells/well were plated on a 24-well tissue culture plate. After 24 h of incubation in DMEM containing 10% FBS, cells were stimulated with LPS (100 ng/mL) and treated with different concentrations of achillolide A. Conditioned media were collected twenty four hours later, and were tested with a rat IL1β ELISA kit (Novus Biologicals; CO, USA), according to the manufacturer's instructions.
2. Plate microglial cells (3.5×10^4 cells/well) on a 24-well tissue culture plate, in DMEM containing 10% FBS, 2 mM glutamine, 100 U/ml penicillin and 100 micrograms/mL streptomycin;
Microglial cells were treated with different concentrations of TTF, followed by stimulation with LPS (100 ng/mL). After 24 h, conditioned media were collected and tested for cytokine levels by ELISA. Cell viability was determined using the crystal violet assay (FIG. 9C). Values represent the means±SEM (n=4 for each treatment).
Microglial cells were treated with 20 μg/mL of achillolide A, followed by stimulation with LPS (4.5 ng/mL). After 5 h the levels of the indicated transcripts were measured by quantitative real-time PCR and the relative quantity (RQ) of the different transcripts were determined. […] The results are expressed as percentages relative to LPS-stimulated cells. […]

CREB = assay: H2O2-induced CREB phosphorylation in astrocytes (ELISA); format: cell-based, rat; conditions: astrocytes pretreated 2 h, H2O2 175 μM 30 min; total CREB not affected
Method: Astrocytes were treated with TTF 2 h before the addition of H2O2. Cells were lysed 40 minutes after the addition of H2O2 in lysis buffer supplied by PathScan sandwich ELISA kit (Cell Signaling TECHNOLOGY) according to the manufacturer's protocol. Protein concentrations in cell lysates were determined by Bradford reagent (Bio-Rad, Hercules, Calif.), and equal amounts of proteins were subjected to ELISA. To measure the amount of total and phosphoSAPK/JNK in cell lysates of astrocytes, ELISA was performed according to the manufacturer's protocol using the PathScan total SAPK/JNK sandwich ELISA kit (Cell Signaling TECHNOLOGY) and the PathScan phospho-SAPK/JNK (Thr183/Tyr185) sandwich ELISA kit (Cell Signaling TECHNOLOGY), respectively. […] The optical density was determined at 450 nm using a microplate reader.
1. […] Determine the optical density at 450 nm using a microplate reader.
Astrocytes were treated with 175 μM of H2O2 for 30 min following preincubation with TTF for 2 h. The levels of phosphorylated and total CREB were measured by ELISA. […]

Structure (SMILES)	inhibition of IL-1β secretion (IL-1β) [%]	effect on LPS-elicited IL-1β secretion (IL-1β)	inhibition of H2O2-induced phosphorylation of CREB (CREB) [%]
C=C1CCC2=C(CO)C(=O)O[C@H]2/C=C(\C)[C@H](OC(C)=O)CC1=O [achillolide A]	59		
COc1cc(-c2oc3cc(OC)c(OC)c(O)c3c(=O)c2O)ccc1O [TTF, 3,5,4′-trihydroxy-6,7,3′-trimethoxyflavone]		markedly inhibited	80

From US11752125B2, “Anti-neuroinflammatory and protective compounds in Achillea fragrantissima” (THE STATE OF ISRAEL MINISTRY OF AGRICULTURE & RURAL …, priority 2013, dated 2023)
